12 molecules from US20170137818A1, “APTAMER INHIBITING BIOLOGICAL ACTIVITY OF AUTOTAXIN BY BINDING WITH AUTOTAXIN, AND USE THEREOF” (RIBOMIC INC., priority 2014, published 2017) can be followed below.

Data set [1] deals with T1, autotaxin (Homo sapiens, UniProt Q13822).
T1 construct: His; purchased R&D
As to the kind of experiment: Biacore surface plasmon resonance, autotaxin immobilized on CM4 chip, nucleic acid as analyte. It is filed as binding. The settings on record: autotaxin immobilized about 2700 RU, nucleic acid 0.3 μM as analyte; maximum RU relative to SEQ ID NO: 12. The protocol: In another measurement method, an autotaxin is first immobilized on a sensorchip. The immobilization amount is set to about 2700 RU. An aptamer solution as an analyte prepared to 0.30 μM is injected by 20 μL, and binding of the aptamer to the autotaxin is detected.
All nucleic acids of SEQ ID NOs: 11-16 were produced by chemical synthesis. Whether these nucleic acids bind to autotaxin was evaluated by the surface plasmon resonance method. For the measurement, Biacore T100 manufactured by GE Healthcare was used, and the measurement was performed by the method shown below. About 2700 RU autotaxin was immobilized on a sensorchip surface of CM4 chip by using an amino coupling kit. The flow rate was 20 μL/min, and nucleic acids (20 μL) prepared to 0.3 μM were injected as an analyte. As a running buffer, solution A was used.
For orientation: Surface plasmon resonance follows binding to a sensor surface in real time, without labels.

Data set [2] concerns the target T1, autotaxin. Description: NPP2 inhibitory assay (pNP-TMP substrate). Type of data set: biochemical. The following applies: mean of 2-3 measurements ± standard deviation.
Excerpt: Whether an aptamer inhibits the enzyme activity of autotaxin can be evaluated, for example, by the following test. As a substrate of autotaxin, phosphodiester bond-containing synthetic substrate p-nitrophenyl thymidine 5′-monophosphate (pNP-TMP) (SIGMA) is used. A phosphodiester bond is cleaved by hydrolysis, and p-nitrophenol is liberated. The p-nitrophenol develops a yellow color, and the color is detected. For the assay, a 96-well plate (96-Well EIAsurasshuRIA Polystyrene Plates, Costar) was used, and the amount of the reaction mixture was 200 μL. Nucleic acid was prepared in solution A (see below-mentioned Example 1) (100 μL), pNP-TMP (20 μL) adjusted to 10 mM in the reaction mixture A was added, and the mixture was stirred well and heated at 37° C. for 5 min. On the other hand, 6 ng of autotaxin (Recombinant Human, manufactured by R&D) diluted with solution A was prepared (80 μL), and heated at 37° C. for 5 min. After heating, they were mixed to start an enzyme reaction. The final autotaxin concentration in the reaction solution was 0.3 nM, and the final substrate concentration was 1 mM. A plate containing the reaction mixture was heated at 37° C. for 24 hr, placed in a microplate reader SpectraMax190 (manufactured by Molecular Devices) and the absorbance was determined at wavelength 405 nm. The absorbance when nucleic acid is not added as 100% (A0), an enzyme activity rate was determined from the absorbance (A) of each test substance and according to the following formula.
Enzyme activity rate=(A/A0)×100
(§1) The concentration (IC50) of an inhibitor necessary for inhibiting the enzyme activity by 50% was determined.
Whether these nucleic acids show an autotaxin inhibitory activity was evaluated by the following method. As a substrate of autotaxin, phosphodiester bond-containing synthetic substrate p-nitrophenyl thymidine 5′-monophosphate (pNP-TMP) (SIGMA) was selected (hereinafter to be referred to as NPP2 inhibitory assay). A phosphodiester bond is cleaved by hydrolysis, and p-nitrophenol is liberated. The p-nitrophenol develops a yellow color, and the color is detected. For the assay, a 96-well plate (96-Well EIA/RIA Polystyrene Plates, Costar) was used, and the amount of the reaction mixture was 200 μL. As the reaction mixture, solution A was used. Nucleic acids were prepared in solution A (100 μL), pNP-TMP (20 μL) adjusted to 10 mM in the reaction mixture A was added, and the mixture was stirred well and heated at 37° C. for 5 min. On the other hand, 6 ng of autotaxin diluted with solution A was prepared (80 μL), and heated at 37° C. for 5 min. After heating, they were mixed to start enzyme reaction. The final autotaxin concentration in the reaction solution was 0.3 nM, and the final substrate concentration was 1 mM. A plate containing the reaction mixture was heated at 37° C. for 24 hr, placed in a microplate reader SpectraMax190 (manufactured by Molecular Devices) and the absorbance was determined at wavelength 405 nm. The absorbance when nucleic acids are not added as 100% (A0), an […] was determined from the absorbance (A) of each test substance and according to the following formula.
as §1

Data set [3] has as its target T1, autotaxin. As to the kind of experiment: Biacore surface plasmon resonance, nucleic acid immobilized on SA chip, autotaxin as analyte. It is filed as binding. The following applies: Example 1, running text. The method, then: Biacore T100 manufactured by GE Healthcare is used for the measurement of binding strength. In one measurement method, an aptamer is first immobilized on a sensorchip. The immobilization amount is set to about 1500 RU. An autotaxin solution as an analyte prepared to 0.020 μM is injected by 20 μL, and binding of the autotaxin to the aptamer is detected.
All nucleic acids shown in SEQ ID NOs: 4-10 were produced by chemical synthesis. The binding activity of these nucleic acids to autotaxin was evaluated by the surface plasmon resonance method. For the measurement, Biacore T100 manufactured by GE Healthcare was used. The SA chips with streptavidin immobilized thereon were used as the sensor chips. Binding thereto was about 1500 RU of 16 nucleotide Poly dT of which biotin was bound to the 5′-terminus. The nucleic acids used as a ligand were added with Poly A (16 nucleotides) to the 3′-terminus, and were immobilized on SA chips by T-A annealing. The nucleic acids (20 μL) were injected at a flow rate of 20 μL/min to immobilize about 1500 RU of the nucleic acids. An autotaxin for analyte was prepared at 0.02 μM, and 20 μL thereof was injected. As a running buffer, solution A (mixed solution of 145 mM sodium chloride, 5.4 mM potassium chloride, 1.8 mM calcium chloride, 0.8 mM magnesium chloride, 20 mM Tris (pH 7.6), 0.05% Tween20) was used.

Data set [4] addresses T1, autotaxin. Description: LysoPLD inhibitory assay (14:0 LPC substrate, choline detection). It is filed as biochemical. From the text: As a substrate of autotaxin, 14:0 lysophosphatidylcholine (LPC, Avanti) was selected (hereinafter to be referred to as LysoPLD inhibitory assay). LPC is hydrolyzed by the lysophospholipase D activity of autotaxin and decomposed into lysophosphatidic acid (LPA) and choline. Choline is oxidized by choline oxidase to afford hydrogen peroxide. In the presence of the hydrogen peroxide and peroxidase, N-ethyl-N-(2-hydroxy-3-sulfopropyl)-3-methoxyaniline (TOOS) and 4-aminoantipyrine (4-AA) undergo oxidation condensation reaction, which develops a purple color to be detected.
For the reaction, a 96-well plate (polypropylene 96-well, manufactured by BMbio) was used, and the amount of the reaction mixture was 60 μL. As a reaction solution, solution A was used. […] The lysophospholipase D activity of autotaxin was evaluated as follows. […] The absorbance was measured at a wavelength of 548 nm, and used as a blank value. Then, solution C (50 μL) was added, and changes in the absorbance at wavelength 548 nm were measured over time. Solution C contained 100 mM tris (pH 8.0), 10 U/mL choline oxidase (manufactured by TOYOBO), 1 mM 4-AA (manufactured by DOJINDO), and 0.01% Triton-X. The absorbance of solution blank at the time point when solution B was added, which had been measured earlier, was subtracted from the absorbance at 15 min after addition of solution C, whereby true absorbance value was obtained. […]

The mark [5] stands for this setting: Table 4, >1.0 = no inhibitory activity up to 1.0 μM.

Some results are limits rather than exact numbers.

Turning to “13 (TGGACGGAACCAGAATACTTTTGGTCTCCA; DNA, backbone and methylation of C not given here) [compound 13]”, the “Binding activity by Biacore” value in data set [1] is on record as “+ (not less than that)”. In data set [2] (Table 2), inhibition was half-maximal at 110 ± 7 nM (IC50).

As for “28 (ACAGGCGCTGGCCGGAACCGTGCATATGGTC; DNA, backbone and methylation of C not given here) [compound 28]”, the IC50 – broadly, the midpoint of a concentration-inhibition curve – in data set [2] (setting [5]) is over 1000 nM.

For the molecule “GTGGTCTAGCTGTACTCNNNNNNNNNNNNNNNNNNNNNNNNNNNNNNNNNNNNNNNNCCACAGTCAACGAGCTA [SEQ ID NO: 1(40N), reference compound]”, the “binding to autotaxin (in words)” value in data set [3] is “not bind”.

With “11 (GTACTCATGGACGGAACCAGAATACTTTTGGTCTCCATTGAGTAC; chemistry not fully specified) [compound 11]”, the “Binding activity by Biacore” value in data set [1] is reported as “+ (not less than that)”.

As to “12 (CCTGGACGGAACCAGAATACTTTTGGTCTCCAGG; chemistry not fully specified) [compound 12]”, in data set [1], the “Binding activity by Biacore” value was “+ (not less than that)”.

Take “15 (CCTGGACGGAACCAATACTTGGTCTCCAGG; DNA, backbone and methylation of C not given here) [compound 15]”: the “Binding activity by Biacore” value in data set [1] is on record as “− (not more than 10% of the aptamer shown in SEQ ID NO: 12 that showed the highest binding amount)”. In addition, half-maximal inhibition in data set [2] (Table 2) (IC50) was put at 990 ± 11 nM.

On to “26 (CGCTGGGGTACGCTCGGAACCGAGGCAATTGGTCAGCG; DNA, backbone and methylation of C not given here) [compound 26]”, for which half-maximal inhibition in data set [2] (setting [5]) (IC50) required 440 ± 41 nM.

For the molecule `CCCCCCCCCCCCCC(=O)Nc1ccc(CP(=O)(O)O)cc1` [S32826], the “LysoPLD inhibitory activity (in words)” value in data set [4] is “an inhibitory activity was not found”. Moreover, in data set [4] (autotaxin 2.1 nM, 14:0 LPC 2 mM, 37° C. 6 hr, mean of 2-3 measurements±standard deviation, >1000 = no inhibitory activity up to 1000 nM), the half-inhibitory concentration (IC50) is over 1000 nM.

Consider “29 (GCTGGCCGGAACCGTGCATATGGTCGCCAGC; DNA, backbone and methylation of C not given here) [compound 29]”, for which the midpoint of inhibition in data set [2] (setting [5]), the IC50, lay at 11 ± 4 nM.

With “16 (CTGGACGGAACCAGAATACTTTTGGTCTCCAG; DNA, backbone and methylation of C not given here) [compound 16]”, the “Binding activity by Biacore” value in data set [1] is reported as “+ (not less than that)”. In data set [2] (Table 2), this molecule came in with an IC50 of 18 ± 1 nM.

As to “27 (TACGCTCGGAACCGAGGCAATTGGTCAGCGTG; DNA, backbone and methylation of C not given here) [compound 27]”, in data set [2] (setting [5]), the IC50 was found to be 24 ± 10 nM.

For “14 (GGGACGGAACCAGAATACTTTTGGTCTCCC; DNA, backbone and methylation of C not given here) [compound 14]”, the “Binding activity by Biacore” value in data set [1] was “+ (not less than that)”. In data set [2] (Table 2), this molecule came in with an IC50 of 42 ± 5 nM.
